# Results from ChEMBL document CHEMBL3992552, “Mechanisms of action and structure-activity relationships of cytotoxic flavokawain derivatives” (Bioorg Med Chem, 2017).
# Calls of active or inactive are those of the source. The rule behind the calls is not given here.
# System: NCI-H727
# Assay: Cell cycle arrest in human NCI-H727 cells assessed as accumulation at G1/S phase by Hoechst staining based fluorescence assay
# Assay type: functional
# Conditions: not given
row,Structure (SMILES),Activity
1,COc1cc(O)c(C(=O)/C=C/c2ccccc2SC)c(OC)c1,Active

# System: Huh-7
# Assay: Cytotoxicity against human HuH7 cells assessed as cell viability after 48 hrs by Hoechst 33342 staining based assay
# Assay type: functional
# Conditions: Huh-7, 48 h
row,Structure (SMILES),IC50 [µM]
1,COc1cc(O)c(C(=O)/C=C/c2ccccc2SC)c(OC)c1,16.6

# System: Caco-2
# Assay: Cell cycle arrest in human Caco2 cells assessed as mitotic index at 25 uM measured after 48 hrs by Hoechst staining based fluorescence assay (reference value: 3.6)
# Assay type: functional
# Conditions: not given
row,Structure (SMILES),Activity_index
1,COc1cc(O)c(C(=O)/C=C/c2ccccc2SC)c(OC)c1,21.9

# System: Huh-7
# Assay: Cytotoxicity against human HuH7 cells assessed as cell survival at 50 uM after 48 hrs by Hoechst 33342 staining based assay relative to control
# Assay type: functional
# Conditions: Huh-7, 48 h, read-out: Survival
row,Structure (SMILES),viability at 50 µM [%]
1,COc1cc(O)c(C(=O)/C=C/c2ccccc2SC)c(OC)c1,38

# System: HaCaT
# Assay: Cell cycle arrest in human HaCaT cells harboring […] p53 assessed as mitotic index at 25 uM measured after 48 hrs by Hoechst staining based fluorescence assay (reference value: 2.6)
# Assay type: functional
# Conditions: not given
row,Structure (SMILES),Activity_index
1,COc1cc(O)c(C(=O)/C=C/c2ccccc2SC)c(OC)c1,7.8

# System: PC-3
# Assay: Cell cycle arrest in human PC3 cells harboring p53 mutant assessed as mitotic index at 25 uM measured after 48 hrs by Hoechst staining based fluorescence assay (reference value: 2.5)
# Assay type: functional
# Conditions: not given
row,Structure (SMILES),Activity_index
1,COc1cc(O)c(C(=O)/C=C/c2ccccc2SC)c(OC)c1,7.6

# System: HCT-116
# Assay: Cell cycle arrest in human HCT116 cells harboring wild-type p53 assessed as accumulation at S phase at 10 uM measured after 48 hrs by Hoechst/BrdU staining based fluorescence assay (reference value: 68.4%)
# Assay type: functional
# Conditions: not given
row,Structure (SMILES),Activity [%]
1,COc1cc(O)c(C(=O)/C=C/c2ccccc2SC)c(OC)c1,52

# System: HCT-116
# Assay: Induction of apoptosis in human HCT116 cells harboring wild-type p53 assessed as increase in cleaved caspase3 at 2 times IC50 after 48 hrs by Hoechst staining based assay
# Assay type: functional, cell-based
# Conditions: not given
row,Structure (SMILES),Activity
1,COc1cc(O)c(C(=O)/C=C/c2ccccc2SC)c(OC)c1,Active

# System: HCT-116
# Assay: Induction of apoptosis in human HCT116 cells harboring wild-type p53 assessed as increase in late apoptosis at 2 times IC50 after 48 hrs by YoPro/propidium iodide/Hoechst staining based assay
# Assay type: functional, cell-based
# Conditions: not given
row,Structure (SMILES),Activity
1,COc1cc(O)c(C(=O)/C=C/c2ccccc2SC)c(OC)c1,Active

# System: Caco-2
# Assay: Cell cycle arrest in human Caco2 cells assessed as accumulation at M phase by Hoechst staining based fluorescence assay
# Assay type: functional
# Conditions: not given
row,Structure (SMILES),Activity
1,COc1cc(O)c(C(=O)/C=C/c2ccccc2SC)c(OC)c1,Active

# System: not listed separately
# Assay: Cytotoxicity against human fibroblasts assessed as cell survival at 50 uM after 48 hrs by Hoechst 33342 staining based assay relative to control
# Parameters: species or system Fibroblast
# Conditions: read-out: Survival
row,Structure (SMILES),"viability at 48 h, 50 µM [%]"
1,COc1cc(O)c(C(=O)/C=C/c2ccccc2SC)c(OC)c1,65

# System: Fibroblast
# Assay: Cytotoxicity against human fibroblasts assessed as cell viability after 48 hrs by Hoechst 33342 staining based assay
# Conditions: not given
row,Structure (SMILES),IC50 [µM]
1,COc1cc(O)c(C(=O)/C=C/c2ccccc2SC)c(OC)c1,> 20

# System: Caco-2
# Assay: Cytotoxicity against human Caco2 cells assessed as cell viability after 48 hrs by Hoechst 33342 staining based assay
# Assay type: functional
# Conditions: Caco-2, 48 h
row,Structure (SMILES),IC50 [µM]
1,COc1cc(O)c(C(=O)/C=C/c2ccccc2SC)c(OC)c1,9.6

# System: PC-3
# Assay: Induction of apoptosis in human PC3 cells harboring p53 mutant assessed as increase in early apoptosis at 2 times IC50 after 48 hrs by YoPro/propidium iodide/Hoechst staining based assay
# Assay type: functional, cell-based
# Conditions: not given
row,Structure (SMILES),Activity
1,COc1cc(O)c(C(=O)/C=C/c2ccccc2SC)c(OC)c1,Active

# System: NCI-H727
# Assay: Cell cycle arrest in human NCI-H727 cells harboring p53 mutant assessed as mitotic index at 25 uM measured after 48 hrs by Hoechst staining based fluorescence assay (reference value: 1.1)
# Assay type: functional
# Conditions: not given
row,Structure (SMILES),Activity_index
1,COc1cc(O)c(C(=O)/C=C/c2ccccc2SC)c(OC)c1,0.4

# System: PC-3
# Assay: Cytotoxicity against human PC3 cells assessed as cell viability after 48 hrs by Hoechst 33342 staining based assay
# Assay type: functional
# Conditions: PC-3, 48 h
row,Structure (SMILES),IC50 [µM]
1,COc1cc(O)c(C(=O)/C=C/c2ccccc2SC)c(OC)c1,8.7

# System: HCT-116
# Assay: Induction of apoptosis in human HCT116 cells harboring wild-type p53 assessed as upregulation of cyclinB1 measured after 48 hrs by Hoechst staining based assay
# Assay type: functional, cell-based
# Conditions: not given
row,Structure (SMILES),Activity
1,COc1cc(O)c(C(=O)/C=C/c2ccccc2SC)c(OC)c1,Active

# System: not listed separately
# Assay: Selectivity index, ratio of IC50 for human fibroblasts to IC50 for human HaCaT cells
# Conditions: not given
row,Structure (SMILES),Ratio IC50
1,COc1cc(O)c(C(=O)/C=C/c2ccccc2SC)c(OC)c1,3.4

# System: PC-3
# Assay: Cell cycle arrest in human PC3 cells harboring p53 mutant assessed as mitotic index at 10 uM measured after 48 hrs by Hoechst staining based fluorescence assay (reference value: 2.5)
# Assay type: functional
# Conditions: not given
row,Structure (SMILES),Activity_index
1,COc1cc(O)c(C(=O)/C=C/c2ccccc2SC)c(OC)c1,4.4

# System: HCT-116
# Assay: Cell cycle arrest in human HCT116 cells assessed as accumulation at G1/S phase by Hoechst staining based fluorescence assay
# Assay type: functional
# Conditions: not given
row,Structure (SMILES),Activity
1,COc1cc(O)c(C(=O)/C=C/c2ccccc2SC)c(OC)c1,Active

# System: HCT-116
# Assay: Induction of apoptosis in human HCT116 cells harboring wild-type p53 assessed as increase in early apoptosis at 2 times IC50 after 48 hrs by YoPro/propidium iodide/Hoechst staining based assay
# Assay type: functional, cell-based
# Conditions: not given
row,Structure (SMILES),Activity
1,COc1cc(O)c(C(=O)/C=C/c2ccccc2SC)c(OC)c1,Active

# System: not listed separately
# Assay: Selectivity index, ratio of IC50 for human fibroblasts to IC50 for human NCI-H727 cells
# Conditions: not given
row,Structure (SMILES),Ratio IC50
1,COc1cc(O)c(C(=O)/C=C/c2ccccc2SC)c(OC)c1,4

# System: not listed separately
# Assay: Selectivity index, ratio of IC50 for human fibroblasts to IC50 for human PC3 cells
# Conditions: not given
row,Structure (SMILES),Ratio IC50
1,COc1cc(O)c(C(=O)/C=C/c2ccccc2SC)c(OC)c1,4.1

# System: Huh-7
# Assay: Cell cycle arrest in human HuH7 cells assessed as accumulation at S phase at 10 uM measured after 48 hrs by Hoechst/BrdU staining based fluorescence assay (reference value: 44%)
# Assay type: functional
# Conditions: not given
row,Structure (SMILES),Activity [%]
1,COc1cc(O)c(C(=O)/C=C/c2ccccc2SC)c(OC)c1,50

# System: HCT-116
# Assay: Cell cycle arrest in human HCT116 cells harboring wild-type p53 assessed as mitotic index at 10 uM measured after 48 hrs by Hoechst staining based fluorescence assay (reference value: 2.3)
# Assay type: functional
# Conditions: not given
row,Structure (SMILES),Activity_index
1,COc1cc(O)c(C(=O)/C=C/c2ccccc2SC)c(OC)c1,0.8

# System: Caco-2
# Assay: Cell cycle arrest in human Caco2 cells assessed as accumulation at S phase at 10 uM measured after 48 hrs by Hoechst/BrdU staining based fluorescence assay (reference value: […])
# Assay type: functional
# Conditions: not given
row,Structure (SMILES),Activity [%]
1,COc1cc(O)c(C(=O)/C=C/c2ccccc2SC)c(OC)c1,50

# System: PC-3
# Assay: Cytotoxicity against human PC3 cells assessed as cell survival at 50 uM after 48 hrs by Hoechst 33342 staining based assay relative to control
# Assay type: functional
# Conditions: PC-3, 48 h, read-out: Survival
row,Structure (SMILES),viability at 50 µM [%]
1,COc1cc(O)c(C(=O)/C=C/c2ccccc2SC)c(OC)c1,35

# System: Caco-2
# Assay: Cell cycle arrest in human Caco2 cells assessed as mitotic index at 10 uM measured after 48 hrs by Hoechst staining based fluorescence assay (reference value: 3.6)
# Assay type: functional
# Conditions: not given
row,Structure (SMILES),Activity_index
1,COc1cc(O)c(C(=O)/C=C/c2ccccc2SC)c(OC)c1,6

# System: MDA-MB-231
# Assay: Cell cycle arrest in human MDA-MB-231 cells harboring p53 mutant assessed as mitotic index at 25 uM measured after 48 hrs by Hoechst staining based fluorescence assay (reference value: 2.1)
# Assay type: functional
# Conditions: not given
row,Structure (SMILES),Activity
1,COc1cc(O)c(C(=O)/C=C/c2ccccc2SC)c(OC)c1,inactive

# System: NCI-H727
# Assay: Cytotoxicity against human NCI-H727 cells assessed as cell viability after 48 hrs by Hoechst 33342 staining based assay
# Assay type: functional
# Conditions: NCI-H727, 48 h
row,Structure (SMILES),IC50 [µM]
1,COc1cc(O)c(C(=O)/C=C/c2ccccc2SC)c(OC)c1,9

# System: Huh-7
# Assay: Cell cycle arrest in human HuH7 cells assessed as accumulation at S phase at 25 uM measured after 48 hrs by Hoechst/BrdU staining based fluorescence assay (reference value: 44%)
# Assay type: functional
# Conditions: not given
row,Structure (SMILES),Activity [%]
1,COc1cc(O)c(C(=O)/C=C/c2ccccc2SC)c(OC)c1,37

# System: MCF7
# Assay: Induction of apoptosis in human MCF7 cells harboring wild-type p53 assessed as upregulation of cyclinB1 measured after 18 hrs by Hoechst staining based assay
# Assay type: functional, cell-based
# Conditions: not given
row,Structure (SMILES),Activity
1,COc1cc(O)c(C(=O)/C=C/c2ccccc2SC)c(OC)c1,Active

# System: MCF7
# Assay: Induction of apoptosis in human MCF7 cells harboring wild-type p53 assessed as upregulation of p21 measured after 48 hrs by Hoechst staining based fluorescence assay
# Assay type: functional, cell-based
# Conditions: not given
row,Structure (SMILES),Activity
1,COc1cc(O)c(C(=O)/C=C/c2ccccc2SC)c(OC)c1,Active

# System: PC-3
# Assay: Induction of apoptosis in human PC3 cells harboring p53 mutant assessed as increase in cleaved caspase3 at 2 times IC50 after 48 hrs by Hoechst staining based assay
# Assay type: functional, cell-based
# Conditions: not given
row,Structure (SMILES),Activity
1,COc1cc(O)c(C(=O)/C=C/c2ccccc2SC)c(OC)c1,Active

# System: NCI-H727
# Assay: Cell cycle arrest in human NCI-H727 cells harboring p53 mutant assessed as mitotic index at 10 uM measured after 48 hrs by Hoechst staining based fluorescence assay (reference value: 1.1)
# Assay type: functional
# Conditions: not given
row,Structure (SMILES),Activity_index
1,COc1cc(O)c(C(=O)/C=C/c2ccccc2SC)c(OC)c1,0.9

# System: HaCaT
# Assay: Cell cycle arrest in human HaCaT cells assessed as accumulation at M phase by Hoechst staining based fluorescence assay
# Assay type: functional
# Conditions: not given
row,Structure (SMILES),Activity
1,COc1cc(O)c(C(=O)/C=C/c2ccccc2SC)c(OC)c1,Active
